Data reported in paper PMC3671673, “In Vitro Morphological Assessment of Apoptosis Induced by Antiproliferative Constituents from the Rhizomes of Curcuma zedoaria” (Evidence-based Complementary and Alternative Medicine : eCAM, 2013).
≈ marks a conversion by molar mass, not a printed value. Marks after values point to notes of the source that are not given here.

Tests used:
[1] = system: noncancer human lung fibroblast cell line (MRC-5); test: Neutral red cytotoxicity assay, MRC-5; assay type: cell-based; conditions: MRC5, isolated compounds, 72 h, mean ± SD of three replicates, read-out: IC50 (μg/mL) MRC-5
Procedure: (§1) The human cancer cells KB, Ca Ski, MCF-7, HCT-116, A549, and noncancer human cell lines (MRC-5) were purchased from the American Tissue Culture Collection (ATCC, USA). The supplemented RPMI 1640 media and eagle minimum essential medium (EMEM) were purchased from Sigma-Aldrich, USA. The supplements or antibiotics such as foetal bovine serum (FBS), penicillin/streptomycin (P/S) (100 μg/mL), amphotericin B (50 μg/mL), and accutase were purchased from PAA Laboratories, Austria. Sodium pyruvate (11 mg/mL) purchased from Sigma-Aldrich, USA. The cells were cultured in a SHEL LAB water-jacketed CO2 incubator with […] tissue culture flasks (Nunc, Denmark), which was observed routinely under inverted microscope (Leica DMI3000 B, Germany) for any contamination and seeded into 96-well flat bottom microtiter plate (Nunc, Denmark). The extract or pure compounds was dissolved in dimethyl sulfoxide (DMSO, Molecular Biology Grade, >99.9%) from Sigma-Aldrich, USA. Microtiter plate incubator shaker (LT Biomax 500) was used and absorbance was measured at 540 nm using an ELISA microplate reader (EMax microplate reader of Molecular Devices, USA). MCF-7 and Ca Ski were cultured in RPMI 1640 media supplemented with 10% v/v FBS, P/S, and amphotericin B and MRC-5 in EMEM media with 10% v/v FBS, P/S, amphotericin B, and sodium pyruvate. The cells were cultured in tissue culture flask in 5% CO2 incubator kept at 37°C in a humidified atmosphere and observed routinely under inverted microscope from any contaminations. Each fresh medium was replaced every 2 or 3 days until cell confluence was achieved and the cells were detached by using accutase.
The in vitro cytotoxicity activity was performed using the neutral red cytotoxicity assay based on the initial protocol as described earlier with some modifications. Briefly, cells were detached from the tissue culture flask with 1.0 mL solution of accutase and PBS solution. The cell pellet was obtained by centrifugation at 1,000 rpm for 5 minutes. The density of the viable cells was counted by 0.4% of trypan blue exclusion in a haemocytometer. Cells were then plated in 96-well microtiter plate (Nunc), at a concentration of 1 × 10^4 cells/well and incubated in a CO2 incubator at 37°C to allow the cells to adhere. After 24 h, the cells were treated with six different concentrations, that is, 1, 10, 25, 50, 75, and 100 μg/mL of each tested agent in three replicates. The plates were incubated for 72 h at 37°C in a 5% CO2 incubator. The untreated cells were regarded as a negative control, whilst cells incubated only with DMSO (0.5%, v/v) were used as a vehicle control. No effect due to the DMSO was observed. Doxorubicin was used as the positive control. After 72 h, the old medium was substituted with fresh medium containing 50 μg/mL neutral red. The 96-well plates were placed into incubator for 3 h. This is to allow the uptake of the vital dye into the lysosomes of viable and undamaged cells. Then, the media was discarded and cells were washed with 200 μL of neutral red washing solution. The dye was eluted from the cells by adding neutral red resorb solution (200 μL). The plate was further incubated for 30 min with rapid agitation on a microtiter plate shaker. The optical density (OD) of the eluted dye was read at 540 nm using a microplate reader. The experiments were conducted in triplicates. […] Cytotoxicity of each test agent is expressed as IC50 value. […]

HCT-116 cells = test: Morphological changes by phase contrast inverted microscope, HCT-116; assay type: cell-based, human; conditions: HCT-116, 48 h, 12.5-50 μg/mL, phase contrast 200x
Procedure: Observation of morphological changes of apoptotic cells was performed according to the method with slight modifications. Briefly, 5 × 10^5 cells were incubated for 48 hours with or without selected compounds at concentrations of 12.5, 25, 40, and 50 μg/mL in a 60 mm diameter tissue culture dishes. The medium was discarded and cells were washed once with PBS. The morphological changes of the apoptotic cells were observed using phase contrast inverted microscope (Leica DMI 3000B, Germany) at 200x magnifications.

[2] = system: hormone-dependent breast cancer cell line (MCF-7); test: cells; assay type: cell-based; conditions: Homo sapiens, MCF7; isolated compounds, 72 h, neutral red, mean ± SD of three replicates; read-out: IC50 (μg/mL) MCF-7
Procedure: as §1
(§2) The in vitro cytotoxicity activity was performed using the neutral red cytotoxicity assay based on the initial protocol as described earlier with some modifications. Briefly, cells were detached from the tissue culture flask with 1.0 mL solution of accutase and PBS solution. The cell pellet was obtained by centrifugation at 1,000 rpm for 5 minutes. The density of the viable cells was counted by 0.4% of trypan blue exclusion in a haemocytometer. Cells were then plated in 96-well microtiter plate (Nunc), at a concentration of 1 × 10^4 cells/well and incubated in a CO2 incubator at 37°C to allow the cells to adhere. After 24 h, the cells were treated with six different concentrations, that is, 1, 10, 25, 50, 75, and 100 μg/mL of each tested agent in three replicates. The plates were incubated for 72 h at 37°C in a 5% CO2 incubator. The untreated cells were regarded as a negative control, whilst cells incubated only with DMSO (0.5%, v/v) were used as a vehicle control. No effect due to the DMSO was observed. Doxorubicin was used as the positive control. After 72 h, the old medium was substituted with fresh medium containing 50 μg/mL neutral red. The 96-well plates were placed into incubator for 3 h. This is to allow the uptake of the vital dye into the lysosomes of viable and undamaged cells. Then, the media was discarded and cells were washed with 200 μL of neutral red washing solution. The dye was eluted from the cells by adding neutral red resorb solution (200 μL). The plate was further incubated for 30 min with rapid agitation on a microtiter plate shaker. The optical density (OD) of the eluted dye was read at 540 nm using a microplate reader. The experiments were conducted in triplicates. The percentage of inhibition of each of the test samples was calculated according to the following formula using the OD values obtained: percentage of inhibition (%) = (OD control − OD sample)/OD control × 100%. The average of three replicates was then obtained. Cytotoxicity of each test agent is expressed as IC50 value. The IC50 value is the concentration of test agents that cause 50% inhibition or cell death, averaged from the three experiments. The IC50 for each extract was extrapolated from the graphs of the percentage inhibition versus concentration of test agents.

[3] = system: cervical carcinoma cell line (Ca Ski); test: cells; assay type: cell-based; conditions: Homo sapiens, isolated compounds, 72 h, neutral red, mean ± SD of three replicates, read-out: IC50 (μg/mL) Ca Ski
Procedure: as §1, §2

MCF-7 cells = test: Hoechst 33342/PI dual staining, quantification of apoptotic/necrotic cells, MCF-7; assay type: cell-based, human; conditions: 48 h
Procedure: Briefly, cells were grown on tissue culture dishes and treated with or without tested compounds at concentrations of 12.5, 25, 40, and 50 μg/mL. After 48 hours, the cells were harvested and washed with cold PBS to a density of 5 × 10^5 cells/mL. The cells were suspended in Hoechst 33342 solution (10 μg/mL) and were incubated at 37°C in CO2 for 7 minutes. After incubation with Hoechst 33342, the cells were counter stained with propidium iodide (2.5 μg/mL). The samples were maintained in the dark for 15 minutes. After staining, an aliquot of cell suspension was placed on a glass microscope slides. The slides were observed immediately under inverted fluorescence microscope (DM16000B, Germany) using UV/488 dual excitation and the fluorescence was measured at ~460 nm emission of Hoechst 33342 dye and >575 nm emission of propidium iodide at 630x magnification. At least 200 total target cells were counted and the numbers of each four cellular states were recorded and analyzed using fluorescence microscopy for quantification of apoptosis and necrosis. The experiment was conducted in triplicates. The percentages of apoptotic and necrotic cells were determined according to the following formula [27]: (1) Percentage of Apoptotic Cells (%) =(LA+DA)/ LN+LA+DN+DA×100,Percentage of Necrotic Cells (%) = DN/LN+LA+DN+DA×100, where LN are live target cells with normal nuclei (Hoechst 33342/PI: blue chromatin with organized structure), LA are live cells with apoptotic nuclei (Hoechst 33342/PI: bright blue chromatin that is highly condensed or fragmented), DN are dead cells with normal nuclei (Hoechst 33342/PI: pink chromatin with organized structure), and DA are dead cells with apoptotic nuclei (Hoechst 33342/PI: bright pink chromatin that is, highly condensed or fragmented).

| SMILES | IC50 [1] [µg/mL] | morphological changes (in words) (HCT-116 cells) | IC50 [2] [µg/mL] | IC50 [3] [µg/mL] | Percentage of apoptotic cells (%) (MCF-7 cells; MCF-7, 12.5 μg/mL) | Percentage of necrotic cells (%) (MCF-7 cells; MCF-7, 12.5 μg/mL) | Percentage of apoptotic cells (%) (MCF-7 cells; MCF-7, 25 μg/mL) | Percentage of necrotic cells (%) (MCF-7 cells; MCF-7, 25 μg/mL) | Percentage of apoptotic cells (%) (MCF-7 cells; MCF-7, 40 μg/mL) | Percentage of necrotic cells (%) (MCF-7 cells; MCF-7, 40 μg/mL) | Percentage of apoptotic cells (%) (MCF-7 cells; MCF-7, 40 μg/mL, listed as alismol) | Percentage of apoptotic cells (%) (MCF-7 cells; MCF-7, 50 μg/mL) | Percentage of necrotic cells (%) (MCF-7 cells; MCF-7, 50 μg/mL) | Percentage of necrotic cells (%) (MCF-7 cells; MCF-7, 50 μg/mL, listed as alismol) | Percentage of apoptotic cells (%) (MCF-7 cells; MCF-7, 40 μg/mL, listed as curzerenone) |
| --- | --- | --- | --- | --- | --- | --- | --- | --- | --- | --- | --- | --- | --- | --- | --- |
| C=C1CCC(C(C)C)=CC2C1CC[C@@]2(C)O (stereo partly drawn) [Alismol, alismol] | > 100 | typical apoptotic features | 10 ± 0.7 (≈ 45.4 µM) | 8.7 ± 1.1 (≈ 39.5 µM) | 6.17 ± 0.58^a % | 3.83 ± 0.30^a % | 9.17 ± 1.5^b % | 5.17 ± 1.50^b % | 43.00 ± 1.0^d % | 38.33 ± 1.30^c % | 43.0 ± 1.0 | 29.63 ± 1.1^c % | 58.97 ± 1.10^d % | 59.0 ± 1.1 |  |
| C=CC1(C)Cc2occ(C)c2C(=O)C1C(=C)C (stereo not drawn) [Curzerenone, curzerenone] | 20 ± 1.2 (≈ 86.8 µM) | typical apoptotic features | 40 ± 0.5 (≈ 174 µM) | 8.9 ± 0.7 (≈ 38.6 µM) | 4.83 ± 0.58^a % | 2.00 ± 1.30^a % | 5.83 ± 0.76^a % | 3.83 ± 0.60^b % | 53.00 ± 2.2^b % | 5.50 ± 1.30^c % |  | 57.33 ± 4.65^b % | 17.83 ± 2.60^d % |  | 53.0 ± 2.2 |
